The values below come from patent US9775877B2, “Combinations with a backbone-cyclized peptide” (POLYPHOR AG, priority 2012, dated 2017).

Usually ED50 stands for the midpoint of the dose-response relation.

Non-standard residues stand in square brackets, D forms with d. dDab = NCC[C@@H](N)C(=O)O; Orn = NCCC[C@H](N)C(=O)O; Dab = NCC[C@H](N)C(=O)O

For the experiment, the system named is Pseudomonas aeruginosa clinical isolate PAX11045. The experiment can be described thus: Efficacy in murine pneumonia model, compound 1 in combination with tigecycline (Example 1). Format: in vivo. Here is the method: Colony counts in lung were determined at 20 hours post treatment.
Fresh overnight colonies of PAX11045 from a 5% Horse Blood Agar plate were suspended in 0.9% sterile saline to approximately 10^8 CFU/ml and further diluted to approximately […]. Female mice (DBA/2, […], 18-22 g, Chales River) were anesthetized with 0.08 ml of Zoletil and inoculated via the nose with a pipette with 0.1 ml of the bacteria suspension containing approximately 10^6 CFU. 4 hours after inoculation, the mice were treated orally with 45 μl neurophen (20 mg ibuprofen/ml corresponding to approximately 30 mg/kg) as pain relief.
[…] As positive control Ciprofloxacin was used in the same manner with a fixed dose of 20 mg/kg.
Colony counts were determined post inoculation at 4 hours (untreated mice) and 24 hours (treated and vehicle-only treated mice). Immediately after the mice were sacrificed, the lungs were collected and frozen at −20° C. After thawing, the organs were homogenized in 1 ml 0.9% saline. Each sample was then 10 fold diluted in saline and 20 μl spots were applied on blood agar plates. All agar plates were incubated 18-24 hours at 35° C. in ambient air.

The mark [1] stands for this setting: compound 1 in presence of 12.5 mg/kg tigecycline, mice, murine lungs.

Turning to `CN(C)c1cc(NC(=O)CNC(C)(C)C)c(O)c2c1C[C@H]1C[C@H]3[C@H](N(C)C)C(O)=C(C(N)=O)C(=O)[C@@]3(O)C(O)=C1C2=O` [tigecycline, reference compound], the “effect on bacterial loads” value (tigecycline 12.5 mg/kg alone, s.c. single dose 3 h post infection, lung) is “no effect”.
In the case of “cyclo(TWI[Dab][Orn][dDab][Dab]W[Dab][Dab]AS[dP]P) [compound 1]”, for the setting “compound 1 in presence of 12.5 mg/kg tigecycline (s.c., 3 h post infection), mice, murine lungs”, the Top level is 0.13 log10 CFU/ml. Further, under setting [1], the “2 log killing dose” value is listed as 2.1 mg/kg, the Bottom level was −2.37 log10 CFU/ml, the Emax was found to be 2.5 log10 CFU/ml and the Static dose worked out at 0.74 mg/kg. The ED50 (compound 1 in presence of a fixed dose of tigecycline (12.5 mg/kg), mice, s.c., murine lungs, colony counts 20 h post treatment) came out at 1.33 mg/kg.
